In this assay the test system is TrkA/CD44v3 complex in COS-7 cells expressing TrkA and CD44v3. Kind of assay: PLA TrkA/CD44v3 complex formation in COS-7 cells. The format is cell-based, African green monkey (COS-7 cells). The following applies: COS-7 expressing TrkA and CD44v3; NGF 100 ng/ml, 0, 5 and 30 min; 30 fields per condition, three experiments. Here is the method: Cells (10,000 cells per well) were grown on acid-washed eight-well glass slides (Thermo Scientific) in the appropriate medium supplemented with 10% FBS for 24 h. After NGF treatment, paraformaldehyde (PAF)-fixed cells were incubated with 4% bovine serum albumin (BSA) or 5% FBS (for 1 h at 20 °C), followed by overnight incubation with primary antibodies (rabbit anti-TrkA or rabbit anti-IgG + mouse anti-pan-CD44; mouse anti-CD44v3; mouse anti-CD44v6; mouse anti-IgG2a; mouse anti-IgG2b; or mouse anti-IgG1). PLA was performed following the manufacturer’s instructions in the assay kit (Duolink PLA; Sigma–Aldrich). To obtain the correct representation of the PLA signal for each condition, 30 fields per condition were observed using a fluorescence microscope (Eclipse TiU; Nikon, Japan). The PLA signals (red dots) were automatically quantified using ImageJ software (with an in-house-developed plug-in). After PLA, statistical analyses were performed using GraphPad Prism software to determine the mean dot intensity in the cells.
Fig. 1 The C-terminal region of CD44 variant 3 binds to TrkA. A Schematic representation of the CD44 gene and protein structure. Alternative splicing leads to the expression of CD44 variants, thus the insertion of exon 8 leads to the expression of a CD44 protein containing variant 3 (CD44v3) and the insertion of exon 11 leads to the expression of a CD44 containing variant 6 (CD44v6) (B) TrkA/CD44v3 complex formation in COS-7 cells expressing TrkA and CD44v3 was detected by the proximity ligation assay (PLA), which was performed 0, 5 and 30 min after the initiation of NGF (100 ng/ml) treatment. The images represent signals detected by PLA. Quantification of the red spots was performed by ImageJ software (30 randomly chosen fields per condition of three different experiments). Statistical analyses were performed using one-way ANOVA followed by Bonferroni’s posttest. Error bars represent the standard error of the mean (S.E.M.); *** p < 0.001. ns, nonsignificant. C NGF and/or TrkA binding to CD44v3 was measured by microscale thermophoresis (MST). MST experiments were performed on whole cell extracts of COS-7 cells expressing CD44v3. […]
Fig. 2 The C-terminal region of CD44v3 and the His112 residue of TrkA are involved in the CD44v3/TrkA interaction. TrkA/CD44v3 complex association was detected by the proximity ligation assay (PLA) in wild-type TrkA- or TrkA_H112A- and CD44v3-expressing COS-7 cells. […] Representative images of signals detected by PLA (A) and their quantification (B). […] TrkA/CD44v3 complex association was detected by PLA in wild-type TrkA and CD44v3 wild type or CD44v3 deleted mutant Δ3 or Δ4 expressing COS-7 (D, E). […] Quantification of PLA was performed using ImageJ software (30 fields per condition of three different experiments). […]

Entries after “also recorded” stand apart in the source; their conditions may differ.

Regarding “IDDDEDFISST [Peptide 4, mimetic peptide 4 (…) corresponding to the C-terminal region of CD44v3]”, the “effect on TrkA/CD44v3 complex formation (PLA) in COS-7 cells” value was “could decrease NGF-induced TrkA/CD44v3 complex formation in COS-7 cells”.
“NGF: recombinant human β-NGF (Alomone Labs, Israel)”: the “effect on TrkA/CD44v3 complex formation (PLA) in COS-7 cells” value was “increased the PLA-detected TrkA/CD44v3 signal in the plasma membrane of COS-7 cells following NGF stimulation; also recorded: transient and decreased 30 min after NGF stimulation”.

Values taken from publication PMC8962522, “Direct interaction of TrkA/CD44v3 is essential for NGF-promoted aggressiveness of breast cancer cells” (Journal of Experimental & Clinical Cancer Research : CR, 2022).
